Experiment [1] concerns total white blood cell (WBC). The experiment in a line: Total white blood cells by complete blood count on day 8, dosing day 1, 3, 5. As to conditions: mice, oral gavage, measured on day 8. It counts as in vivo, Swiss-Webster mice.
In experiment [2] the test system is total white blood cell (WBC). The experiment is described as above. As to conditions: Mus musculus, 192 h, mice, oral gavage, measured on day 8, read-out: Total WBC % Increase Over Control; for change in vivo at 200 mg/kg: 200 mg/kg on day 1, day 3 and day 5; for change in vivo at 100 mg/kg: 100 mg/kg on day 1, day 3 and day 5. It counts as in vivo, Swiss-Webster mice. How it is done: To examine the effect of compounds and methods of the present invention on increasing white blood cells, the following studies were performed. In one series of experiments, male Swiss-Webster mice were administered various compounds of the present invention via oral gavage using a ball-tipped gavage needle. […] Animals were dosed once daily for 3 or 4 days. Six hours after the final dosing, 200 μl blood samples were collected and total white blood cell, neutrophil, and lymphocyte levels were measured by complete blood count (CBC) using a CellDyn cell analyzer (Abbott Laboratories).
In another series of experiments, male Swiss-Webster mice were administered various compounds (see Table 7 and Table 8) of the present invention via oral gavage using a ball-tipped gavage needle. […] Total WBC, neutrophil, lymphocyte, and monocyte levels were measured in mice as described above on day 8 following administration of compound on day 1, day 3, and day 5.

The mark [3] stands for this setting: 200 mg/kg on day 1, day 3 and day 5.
Setting [4] is: 20 mg/kg on day 1, day 3 and day 5.
Setting [5] is: 100 mg/kg on day 1, day 3 and day 5.

From patent US20110039879A1, “METHODS FOR INCREASING WHITE BLOOD CELLS” (FibroGen ,Inc., priority 2007, published 2011) come the findings set out here.

In the case of `N#Cc1nc(C(=O)NCC(=O)O)c(O)c2sccc12` [Compound AA, [(4-Cyano-7-hydroxy-thieno[3,2-c]pyridine-6-carbonyl)-amino]-acetic acid], in experiment [1] (Mus musculus, 192 h, 2 mg/kg on day 1, day 3 and day 5, read-out: Total WBC % Increase Over Control), the change in vivo at 2 mg/kg was found to be 20%. Moreover, the “Total WBC” value in experiment [1] (2 mg/kg on day 1, day 3 and day 5) is on record as 7.1 10^3 cells/μl.
Turning to `N#Cc1nc(C(=O)NCC(=O)O)c(O)c2cccc(Oc3ccccc3)c12` [Compound AD, [(1-Cyano-4-hydroxy-8-phenoxy-isoquinoline-3-carbonyl)-amino]-acetic acid], in experiment [1] (setting [3]), the “Total WBC” value was 7.6 10^3 cells/μl. Further, in experiment [2], the change in vivo at 200 mg/kg stood at 10%.
The matching figures for `N#Cc1nc(C(=O)NCC(=O)O)c(O)c2cccc(Oc3ccc(F)cc3)c12` [Compound AF, {[1-Cyano-8-(4-fluoro-phenoxy)-4-hydroxy-isoquinoline-3-carbonyl]-amino}-acetic acid]: 8.2 10^3 cells/μl and 35%.
`N#Cc1nc(C(=O)NCC(=O)O)c(O)c2cc(Oc3ccccc3)ccc12` [Compound AG, [(1-Cyano-4-hydroxy-6-phenoxy-isoquinoline-3-carbonyl)-amino]-acetic acid]: the “Total WBC” value in experiment [1] (setting [4]) is reported as 7.6 10^3 cells/μl. In experiment [2] (setting [4]), the change in vivo at 20 mg/kg turned out to be 25%.
As to `N#Cc1nc(C(=O)NCC(=O)O)c(O)c2c(Oc3ccccc3)cccc12` [Compound AH, [(1-Cyano-4-hydroxy-5-phenoxy-isoquinoline-3-carbonyl)-amino]-acetic acid], the “Total WBC” value in experiment [1] (setting [3]) is reported as 9.4 10^3 cells/μl. Besides, the change in vivo at 200 mg/kg in experiment [2] was found to be 123%.
In the same order, the values of `COc1ccc(Cn2cc(Br)c3c(O)c(C(=O)NCC(=O)O)nc(C#N)c32)cc1` [Compound AJ, {[3-Bromo-7-cyano-4-hydroxy-1-(4-methoxy-benzyl)-1H-pyrrolo[2,3-c]pyridine-5-carbonyl]-amino}-acetic acid] are 21.5 10^3 cells/μl and 237%.
Turning to `COc1ccc(Cn2c(Cl)c(Cl)c3c(O)c(C(=O)NCC(=O)O)nc(C#N)c32)cc1` [Compound AK, {[2,3-Dichloro-7-cyano-4-hydroxy-1-(4-methoxy-benzyl)-1H-pyrrolo[2,3-c]pyridine-5-carbonyl]-amino}-acetic acid], the “Total WBC” value in experiment [1] (setting [3]) is recorded as 16.8 10^3 cells/μl. Also, the change in vivo at 200 mg/kg in experiment [2] is 105%.
As to `COc1ccc(Cn2cc(Cl)c3c(O)c(C(=O)NCC(=O)O)nc(C#N)c32)cc1` [Compound AM, {[3-Chloro-7-cyano-4-hydroxy-1-(4-methoxy-benzyl)-1H-pyrrolo[2,3-c]pyridine-5-carbonyl]-amino}-acetic acid], the “Total WBC” value in experiment [1] (setting [3]) was 23.3 10^3 cells/μl. Also, the change in vivo at 200 mg/kg in experiment [2] came out at 264%.
The matching figures for `N#Cc1nc(C(=O)NCC(=O)O)c(O)c2c(Cl)cn(Cc3ccccc3F)c12` [Compound AN, {[3-Chloro-7-cyano-1-(2-fluoro-benzyl)-4-hydroxy-1H-pyrrolo[2,3-c]pyridine-5-carbonyl]-amino}-acetic acid]: 23.2 10^3 cells/μl and 179%.
As for `CC(C)CCn1cc(Cl)c2c(O)c(C(=O)NCC(=O)O)nc(C#N)c21` [Compound AO, {[3-Chloro-7-cyano-4-hydroxy-1-(3-methyl-butyl)-1H-pyrrolo[2,3-c]pyridine-5-carbonyl]-amino}-acetic acid], the “Total WBC” value in experiment [1] (setting [5]) was 10.5 10^3 cells/μl. Besides, the change in vivo at 100 mg/kg in experiment [2] is 47%.
The matching figures for `N#Cc1nc(C(=O)NCC(=O)O)c(O)c2c(Cl)c(Cl)n(Cc3ccc4ccccc4c3)c12` [Compound AP, [(2,3-Dichloro-7-cyano-4-hydroxy-1-naphthalen-2-ylmethyl-1H-pyrrolo[2,3-c]pyridine-5-carbonyl)-amino]-acetic acid]: 10.8 10^3 cells/μl and 88%.
Consider `O=C(O)CNC(=O)c1ncc2cc(Oc3ccc(F)cc3)ccc2c1O` [Compound U, {[7-(4-Fluoro-phenoxy)-4-hydroxy-isoquinoline-3-carbonyl]-amino}-acetic acid], for which, in experiment [1] (Mus musculus, 192 h, 6 mg/kg on day 1, day 3 and day 5, read-out: Total WBC % Increase Over Control), the change in vivo at 6 mg/kg stood at 6%. Also, in experiment [1] (6 mg/kg on day 1, day 3 and day 5), the “Total WBC” value is 8.3 10^3 cells/μl.
